Reference: ChEMBL document CHEMBL5291721, “A preclinical secondary pharmacology resource illuminates target-adverse drug reaction associations of marketed drugs” (Nat Commun, 2023)

Columns and labels:
D(1A) dopamine receptor = D(1A) dopamine receptor (Homo sapiens, UniProt P21728)
Histamine H2 receptor = Histamine H2 receptor (Homo sapiens, UniProt P25021)
[1] = target: T1, Muscarinic acetylcholine receptor M2 (Homo sapiens, UniProt P08172)
T1 sequence (P08172 whole entry): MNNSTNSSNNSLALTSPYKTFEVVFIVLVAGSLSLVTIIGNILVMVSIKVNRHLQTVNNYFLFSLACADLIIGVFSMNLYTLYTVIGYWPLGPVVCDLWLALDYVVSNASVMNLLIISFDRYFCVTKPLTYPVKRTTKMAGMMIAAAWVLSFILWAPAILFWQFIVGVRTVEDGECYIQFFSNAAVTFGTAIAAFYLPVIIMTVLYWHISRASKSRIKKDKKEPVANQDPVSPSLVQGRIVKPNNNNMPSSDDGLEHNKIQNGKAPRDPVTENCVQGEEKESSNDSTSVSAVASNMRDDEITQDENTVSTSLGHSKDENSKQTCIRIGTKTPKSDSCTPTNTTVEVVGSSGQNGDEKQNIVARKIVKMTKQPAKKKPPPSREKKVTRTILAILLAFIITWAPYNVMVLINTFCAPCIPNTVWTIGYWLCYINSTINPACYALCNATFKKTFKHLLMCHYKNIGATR

[2] = target: T2, Corticotropin-releasing factor receptor 1 (Homo sapiens, UniProt P34998)
T2 sequence (P34998 whole entry): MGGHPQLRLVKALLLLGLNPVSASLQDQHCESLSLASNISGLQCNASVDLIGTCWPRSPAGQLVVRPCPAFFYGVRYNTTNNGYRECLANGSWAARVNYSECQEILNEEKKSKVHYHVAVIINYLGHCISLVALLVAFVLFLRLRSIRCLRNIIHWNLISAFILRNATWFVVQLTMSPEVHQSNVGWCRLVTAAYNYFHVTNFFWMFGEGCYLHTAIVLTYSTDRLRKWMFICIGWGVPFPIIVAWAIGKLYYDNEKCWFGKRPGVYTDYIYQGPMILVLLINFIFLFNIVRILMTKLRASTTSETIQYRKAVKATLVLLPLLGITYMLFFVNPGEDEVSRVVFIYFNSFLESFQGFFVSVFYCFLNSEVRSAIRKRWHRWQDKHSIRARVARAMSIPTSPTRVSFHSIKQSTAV

Progesterone receptor = target: T3, Progesterone receptor (Homo sapiens, UniProt P06401)
T3 sequence (P06401 whole entry): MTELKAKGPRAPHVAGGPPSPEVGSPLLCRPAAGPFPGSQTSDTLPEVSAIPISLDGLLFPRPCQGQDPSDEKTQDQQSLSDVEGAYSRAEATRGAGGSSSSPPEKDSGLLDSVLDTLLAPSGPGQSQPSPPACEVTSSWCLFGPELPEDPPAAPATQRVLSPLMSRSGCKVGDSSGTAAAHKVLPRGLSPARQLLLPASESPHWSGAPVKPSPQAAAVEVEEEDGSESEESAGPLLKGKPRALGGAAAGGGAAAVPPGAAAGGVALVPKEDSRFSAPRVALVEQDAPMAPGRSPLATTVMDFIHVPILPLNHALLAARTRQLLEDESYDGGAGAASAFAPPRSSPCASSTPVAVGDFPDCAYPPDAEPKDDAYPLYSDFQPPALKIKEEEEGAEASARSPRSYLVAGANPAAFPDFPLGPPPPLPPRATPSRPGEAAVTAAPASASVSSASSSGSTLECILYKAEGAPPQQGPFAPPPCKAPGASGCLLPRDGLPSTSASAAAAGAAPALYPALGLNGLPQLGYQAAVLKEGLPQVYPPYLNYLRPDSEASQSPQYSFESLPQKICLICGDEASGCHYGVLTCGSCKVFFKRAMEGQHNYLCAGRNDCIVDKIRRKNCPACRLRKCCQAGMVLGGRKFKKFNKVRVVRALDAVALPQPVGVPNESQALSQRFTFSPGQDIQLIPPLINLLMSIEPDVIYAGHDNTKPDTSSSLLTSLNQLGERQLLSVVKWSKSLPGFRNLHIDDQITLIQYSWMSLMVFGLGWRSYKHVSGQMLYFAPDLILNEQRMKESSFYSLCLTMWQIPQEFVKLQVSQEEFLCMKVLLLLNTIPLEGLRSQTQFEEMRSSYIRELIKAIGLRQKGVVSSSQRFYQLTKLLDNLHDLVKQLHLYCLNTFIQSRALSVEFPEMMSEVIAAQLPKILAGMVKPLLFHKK

Substance-P receptor = Substance-P receptor (Homo sapiens, UniProt P25103)
[3] = target: T4, Gastric inhibitory polypeptide receptor (Homo sapiens, UniProt P48546)
T4 sequence (P48546 whole entry): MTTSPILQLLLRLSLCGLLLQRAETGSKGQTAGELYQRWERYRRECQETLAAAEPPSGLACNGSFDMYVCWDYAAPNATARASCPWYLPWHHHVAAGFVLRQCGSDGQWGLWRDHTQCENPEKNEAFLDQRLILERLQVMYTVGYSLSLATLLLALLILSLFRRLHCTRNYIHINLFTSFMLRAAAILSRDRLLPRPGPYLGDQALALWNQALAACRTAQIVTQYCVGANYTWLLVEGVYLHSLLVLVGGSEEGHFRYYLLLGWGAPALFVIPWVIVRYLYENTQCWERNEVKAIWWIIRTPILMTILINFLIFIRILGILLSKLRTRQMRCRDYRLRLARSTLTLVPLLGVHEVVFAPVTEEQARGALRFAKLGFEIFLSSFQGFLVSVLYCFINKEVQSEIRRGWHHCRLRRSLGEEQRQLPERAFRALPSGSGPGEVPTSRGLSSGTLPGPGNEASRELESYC

[4] = target: T5, Alpha-1A adrenergic receptor (Homo sapiens, UniProt P35348)
T5 sequence (P35348 whole entry): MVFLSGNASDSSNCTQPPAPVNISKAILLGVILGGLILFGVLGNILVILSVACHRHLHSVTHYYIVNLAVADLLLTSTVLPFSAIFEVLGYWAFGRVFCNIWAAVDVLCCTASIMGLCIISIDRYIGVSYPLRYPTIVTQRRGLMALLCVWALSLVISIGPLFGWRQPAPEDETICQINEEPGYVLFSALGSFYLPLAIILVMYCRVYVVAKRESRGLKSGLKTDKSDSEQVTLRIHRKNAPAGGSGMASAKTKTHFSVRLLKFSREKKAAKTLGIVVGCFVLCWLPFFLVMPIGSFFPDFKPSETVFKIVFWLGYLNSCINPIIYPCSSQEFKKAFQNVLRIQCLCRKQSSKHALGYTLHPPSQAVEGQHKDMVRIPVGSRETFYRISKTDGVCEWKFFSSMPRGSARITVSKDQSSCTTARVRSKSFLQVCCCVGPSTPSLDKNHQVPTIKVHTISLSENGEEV

[5] = target: Beta-2 adrenergic receptor (Homo sapiens, UniProt P07550); type: functional, cell-based
Further: assay procedure not described here.

D(1A) dopamine receptor, sequence (P21728 whole entry): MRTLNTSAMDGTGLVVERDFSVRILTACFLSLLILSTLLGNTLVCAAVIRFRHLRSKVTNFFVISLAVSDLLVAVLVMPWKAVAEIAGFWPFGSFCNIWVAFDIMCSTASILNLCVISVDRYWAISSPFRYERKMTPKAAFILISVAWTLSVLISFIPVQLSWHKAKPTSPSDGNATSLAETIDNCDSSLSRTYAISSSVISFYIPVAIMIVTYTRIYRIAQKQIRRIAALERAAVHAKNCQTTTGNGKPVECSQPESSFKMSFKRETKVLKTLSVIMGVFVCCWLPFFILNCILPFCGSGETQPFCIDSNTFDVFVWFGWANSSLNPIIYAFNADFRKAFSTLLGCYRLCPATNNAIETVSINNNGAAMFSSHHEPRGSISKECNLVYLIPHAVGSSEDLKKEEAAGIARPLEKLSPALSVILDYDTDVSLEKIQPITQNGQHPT
Beta-2 adrenergic receptor, sequence (P07550 whole entry): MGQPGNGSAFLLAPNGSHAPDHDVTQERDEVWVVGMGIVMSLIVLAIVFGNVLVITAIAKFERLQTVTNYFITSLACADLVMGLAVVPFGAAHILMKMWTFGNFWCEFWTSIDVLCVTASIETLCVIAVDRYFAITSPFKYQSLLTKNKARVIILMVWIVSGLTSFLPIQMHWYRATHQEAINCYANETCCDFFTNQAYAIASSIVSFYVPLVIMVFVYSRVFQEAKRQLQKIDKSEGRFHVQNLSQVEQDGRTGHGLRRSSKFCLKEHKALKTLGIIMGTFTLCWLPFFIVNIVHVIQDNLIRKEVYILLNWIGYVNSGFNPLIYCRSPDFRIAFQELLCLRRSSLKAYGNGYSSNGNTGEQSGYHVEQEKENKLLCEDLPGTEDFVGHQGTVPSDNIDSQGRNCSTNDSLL
Histamine H2 receptor, sequence (P25021 whole entry): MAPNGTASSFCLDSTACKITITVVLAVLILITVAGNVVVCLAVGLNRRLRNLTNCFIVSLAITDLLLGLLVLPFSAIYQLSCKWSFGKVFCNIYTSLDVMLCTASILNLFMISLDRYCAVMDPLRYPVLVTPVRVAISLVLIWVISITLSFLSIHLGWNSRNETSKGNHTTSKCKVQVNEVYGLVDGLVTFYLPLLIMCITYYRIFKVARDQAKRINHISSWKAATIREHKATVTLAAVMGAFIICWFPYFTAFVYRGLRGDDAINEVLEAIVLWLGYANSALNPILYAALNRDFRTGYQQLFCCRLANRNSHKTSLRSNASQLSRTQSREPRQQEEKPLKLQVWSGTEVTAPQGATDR
Substance-P receptor, sequence (P25103 whole entry): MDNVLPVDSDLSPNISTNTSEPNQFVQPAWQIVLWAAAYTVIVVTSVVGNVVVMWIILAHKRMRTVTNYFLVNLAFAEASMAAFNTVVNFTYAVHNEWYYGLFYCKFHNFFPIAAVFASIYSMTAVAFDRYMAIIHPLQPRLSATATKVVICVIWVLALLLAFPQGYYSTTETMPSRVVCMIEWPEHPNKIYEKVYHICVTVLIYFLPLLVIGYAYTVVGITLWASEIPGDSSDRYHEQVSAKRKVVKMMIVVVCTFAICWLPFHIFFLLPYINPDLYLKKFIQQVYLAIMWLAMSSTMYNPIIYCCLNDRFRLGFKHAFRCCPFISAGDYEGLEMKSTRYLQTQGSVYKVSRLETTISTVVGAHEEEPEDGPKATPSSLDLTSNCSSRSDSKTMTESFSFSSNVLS

| SMILES | AC50 (D(1A) dopamine receptor) [µM] | AC50 (Histamine H2 receptor) [µM] | AC50 [1] [µM] | AC50 [2] [µM] | AC50 (Progesterone receptor) [µM] | AC50 (Substance-P receptor) [µM] | AC50 [3] [µM] | AC50 [4] [µM] | AC50 [5] [µM] |
| --- | --- | --- | --- | --- | --- | --- | --- | --- | --- |
| C[C@]1(COc2ccc(N3CCC(Oc4ccc(OC(F)(F)F)cc4)CC3)cc2)Cn2cc([N+](=O)[O-])nc2O1 | > 10 | > 10 | > 10 | > 30 | > 30 | > 10 | > 30 | > 10 |  |
| C[C@]12CC[C@H](O)CC1=CC[C@@H]1[C@@H]2CC[C@]2(C)C(c3cccnc3)=CC[C@@H]12 [ABIRATERONE] |  |  |  |  | > 30 |  |  |  |  |
| CC(=O)OCC[N+](C)(C)C [ACETYLCHOLINE] | > 10 | > 10 |  | > 30 | > 30 | > 10 | > 30 | > 10 |  |
| O=C(Nc1nc(-c2cc(Cl)cs2)c(N2CCN(C3CCCCC3)CC2)s1)c1cnc(N2CCC(C(=O)O)CC2)c(Cl)c1 [AVATROMBOPAG] | > 10 | > 10 | > 10 |  |  | > 10 |  | > 10 |  |
| C[C@H]1C[C@H]2[C@@H]3CCC4=CC(=O)C=C[C@]4(C)[C@@]3(Cl)[C@@H](O)C[C@]2(C)[C@@]1(O)C(=O)CO [BECLOMETHASONE] | > 10 | > 10 | > 10 | > 30 | > 30 | > 10 | > 30 | > 10 |  |
| CO[C@@]1(NC(=O)CSCC#N)C(=O)N2C(C(=O)O)=C(CSc3nnnn3C)CS[C@@H]21 [CEFMETAZOLE] |  |  |  |  |  |  |  |  | > 30 |
| CO/N=C(\C(=O)N[C@@H]1C(=O)N2C(C(=O)[O-])=C(C[n+]3cccc4c3CCC4)CS[C@H]12)c1csc(N)n1 [CEFPIROME] |  |  |  |  |  |  |  |  | > 30 |
| CC[C@H]1OC(=O)[C@H](C)[C@@H](O[C@H]2C[C@@](C)(OC)[C@@H](O)[C@H](C)O2)[C@H](C)[C@@H](O[C@@H]2O[C@H](C)C[C@H](N(C)C)[C@H]2O)[C@](C)(OC)C[C@@H](C)C(=O)[C@H](C)[C@@H](O)[C@]1(C)O [CLARITHROMYCIN] |  |  |  |  |  |  |  |  | > 30 |
| Oc1c(I)cc(Cl)c2cccnc12 [CLIOQUINOL] |  |  |  |  |  |  |  |  | > 10 |
| COc1ccc2c(c1)[C@]13CCCC[C@@H]1[C@H](C2)N(C)CC3 [DEXTROMETHORPHAN] | > 10 | > 10 | > 10 | > 30 | > 30 | 6.94 | > 30 | 5.22 |  |
| CCn1cc(C(=O)O)c(=O)c2cc(F)c(N3CCNCC3)nc21 [ENOXACIN] | > 10 | > 10 | > 10 | > 30 | > 30 | > 10 | > 30 | > 10 |  |
| CNC(=O)Oc1ccc2c(c1)[C@]1(C)CCN(C)[C@@H]1N2C [PHYSOSTIGMINE] |  |  |  |  |  |  |  |  | > 30 |
| CNCCCC1c2ccccc2C=Cc2ccccc21 [PROTRIPTYLINE] |  |  | 0.653 |  |  |  |  |  |  |
| COCCCOc1ccnc(C[S+]([O-])c2nc3ccccc3[nH]2)c1C (stereo not given) [RABEPRAZOLE] | > 10 | > 10 | > 10 | > 30 | > 30 | > 10 | > 30 | 4.98 |  |
| O=C(CCCN1CCC2(CC1)C(=O)NCN2c1ccccc1)c1ccc(F)cc1 [SPIPERONE] |  |  |  |  |  |  |  |  | > 30 |
